# Experimental data from article PMC4867616, “Imaging of Cerebral Amyloid Angiopathy with Bivalent ^99mTc-Hydroxamamide Complexes” (Scientific Reports, 2016).
# Where “and” joins values, the source holds several entries; their conditions need not be identical. Equal entries are not always repeated.
# What was measured:
# [1] = Ex vivo biodistribution in normal mice; parameters: species or system ddY mice; conditions: i.v., mean (SD), 5 animals
# Protocol: To evaluate brain uptake of ^99mTc-Ham complexes, biodistribution experiments of ^99mTc-Ham complexes were performed in normal mice. We selected ^18F-florbetapir as a control and compared the results of ^99mTc-Ham complexes with that of ^18F-florbetapir (Fig. 2). The brain uptake of [^99mTc]SB1A, [^99mTc]SB2A, [^99mTc]BT1B, and [^99mTc]BT2B at 2 min postinjection was 0.37, 0.28, 0.36, and 0.37% injected dose (ID)/g, respectively. The radioactivity in the brains remained low until 60 min postinjection. The results of the biodistribution study are shown in Table S1 in Supplementary information.
# A saline solution (100 μL) of ^99mTc-Ham complexes (20 kBq) containing EtOH (10 μL) was injected directly into the tail vein of ddY mice (male, 5 weeks old). The mice were sacrificed at 2, 10, 30, and 60 min postinjection. The organs of interest were removed and weighed, and radioactivity was measured using a γ counter (PerkinElmer). The %ID/g of samples was calculated by comparing the sample counts with the count of the diluted initial dose.
# *Corresponding author: M. Ono. Address: 46-29 Yoshida Shimoadachi-cho, Sakyo-ku, Kyoto 606-8501, Japan, Phone: +81-75-753-4608, Fax: +81-75-753-4568, E-mail: ono@pharm.kyoto-u.ac.jp. Ex vivo biodistribution in normal mice. A saline solution (100 μL) of ^99mTc-Ham complexes (20 kBq) containing EtOH (10 μL) was injected directly into the tail vein of ddY mice (male, 5 weeks old). The mice were sacrificed at 2, 10, 30, and 60 min postinjection. The organs of interest were removed and weighed, and radioactivity was measured using a γ counter (Wallac 1470 Wizard; PerkinElmer, Massachusetts, USA). Percentage dose per organ was calculated by comparing the tissue counts to suitably diluted aliquots of the injected material. The %dose/g of samples was calculated by comparing the sample counts with the count of the diluted initial dose.
# [2] = molecular target: T1, Aβ depositions in Tg2576 mouse brain (Homo sapiens, UniProt P05067); assay: Ex vivo autoradiography using Tg2576 and wild-type mice; format: in vivo; conditions: for Selectivity for vascular versus parenchymal amyloid aggregates (ex vivo autoradiography, thioflavin-S and anti-CD31 staining): Tg2576 mice, 30 min postinjection
# T1 construct: Aβ(1–40) aggregates, the predominant amyloid found in CAA; tissue Taconic Farms, Inc. (New York, USA); host or cells: brain of living female Tg2576 transgenic mice
# Protocol: Tg2576 transgenic mice (female, 29 months old) and wild-type mice (female, 29 months old) were used as the AD model and age-matched control, respectively. A saline solution (150 μL) of [^99mTc]SB2A or [^99mTc]BT2B (18.5 MBq) containing EtOH (30 μL) was injected through the tail vein. The mice were sacrificed at 30 min postinjection. The brains were immediately removed, embedded in carboxymethylcellulose solution and then frozen in a dry ice/hexane bath. Sections of 30 μm were cut and exposed to a BAS imaging plate (Fuji Film) overnight. Autoradiographic images were obtained using a BAS5000 scanner system (Fuji Film). After autoradiographic examination, the same sections were stained by thioflavin-S to confirm the presence of Aβ depositions. For thioflavin-S fluorescent staining, the sections were immersed in a 100 μM thioflavin-S solution containing 50% EtOH for 3 min, washed in 50% EtOH for 1 min two times, and examined using a microscope (Keyence Corp.) equipped with a GFP-BP filter set. Additionally, the same sections were immunostained by anti-CD31 antibody to confirm the presence of endothelial cells. For immunohistochemical staining of CD31, the sections were incubated in PBST for 5 min three times, and incubated with anti-CD31 primary antibody (SZ31; Abcam, Cambridgeshire, U.K., dilution 1:50) at room temperature overnight. After three 5-min incubations in PBST, anti-rabbit secondary antibody (Dako, California, USA) incubation was carried out at room temperature for 3 h. Subsequently, the sections were incubated in PBST for 5 min three times, and incubated with diaminobenzidine (Merck) as a chromogen for 5 min. After washing with water, the sections were observed under a microscope (Keyence Corp.).
# Ex vivo autoradiography using Tg2576 and wild-type mice. Tg2576 transgenic mice (female, 29 months old) and wild-type mice (female, 29 months old) were used as the Alzheimer’s model and age-matched control, respectively. A saline solution (150 µL) of [^99mTc]BT2B (18.5 MBq) containing ethanol (30 µL) was injected through the tail vein. […]
# T1 sequence (P05067 672-711 limits assumed): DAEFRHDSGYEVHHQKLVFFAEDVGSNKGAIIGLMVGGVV
structure (smiles),measurement,setting,value
"CN(C)c1ccc(/C=C/c2ccc(C3=N[O][99Tc-]4(=[O])([NH]3)[NH2+]C(c3ccc(/C=C/c5ccc(N(C)C)cc5)cc3)=N[O]4)cc2)cc1 (single isomer, unassigned) [[^99mTc]SB2A]","Biodistribution of radioactivity, Heart",[1]; 2 min after injection,12.64 (1.59) % injected dose per gram
same,"Biodistribution of radioactivity, Intestine",[1]; 2 min after injection,1.52 (0.25) % injected dose per gram
same,"Biodistribution of radioactivity, Kidney",[1]; 2 min after injection,5.03 (0.52) % injected dose per gram
same,"Biodistribution of radioactivity, Liver",[1]; 2 min after injection,25.52 (1.67) % injected dose per gram
same,"Biodistribution of radioactivity, Lung",[1]; 2 min after injection,14.35 (1.86) % injected dose per gram
same,"Biodistribution of radioactivity, Pancreas",[1]; 2 min after injection,3.35 (0.60) % injected dose per gram
same,"Biodistribution of radioactivity, Spleen",[1]; 2 min after injection,10.76 (0.96) % injected dose per gram
same,"Biodistribution of radioactivity, Stomach",[1]; 2 min after injection,3.15 (0.56) % injected dose per organ
same,"Biodistribution of radioactivity, Heart",[1]; 10 min after injection,6.57 (0.92) % injected dose per gram
same,"Biodistribution of radioactivity, Intestine",[1]; 10 min after injection,1.71 (0.11) % injected dose per gram
same,"Biodistribution of radioactivity, Kidney",[1]; 10 min after injection,3.57 (0.41) % injected dose per gram
same,"Biodistribution of radioactivity, Liver",[1]; 10 min after injection,29.35 (2.85) % injected dose per gram
same,"Biodistribution of radioactivity, Lung",[1]; 10 min after injection,7.79 (0.50) % injected dose per gram
same,"Biodistribution of radioactivity, Pancreas",[1]; 10 min after injection,2.12 (0.08) % injected dose per gram
same,"Biodistribution of radioactivity, Spleen",[1]; 10 min after injection,11.24 (2.26) % injected dose per gram
same,"Biodistribution of radioactivity, Stomach",[1]; 10 min after injection,8.78 (1.32) % injected dose per organ
same,"Biodistribution of radioactivity, Heart",[1]; 30 min after injection,8.58 (1.32) % injected dose per gram
same,"Biodistribution of radioactivity, Intestine",[1]; 30 min after injection,2.64 (0.36) % injected dose per gram
same,"Biodistribution of radioactivity, Kidney",[1]; 30 min after injection,3.61 (0.29) % injected dose per gram
same,"Biodistribution of radioactivity, Liver",[1]; 30 min after injection,27.04 (3.90) % injected dose per gram
same,"Biodistribution of radioactivity, Lung",[1]; 30 min after injection,7.26 (1.02) % injected dose per gram
same,"Biodistribution of radioactivity, Pancreas",[1]; 30 min after injection,2.06 (0.11) % injected dose per gram
same,"Biodistribution of radioactivity, Spleen",[1]; 30 min after injection,8.91 (3.26) % injected dose per gram
same,"Biodistribution of radioactivity, Stomach",[1]; 30 min after injection,16.13 (2.33) % injected dose per organ
same,"Biodistribution of radioactivity, Heart",[1]; 60 min after injection,8.27 (1.19) % injected dose per gram
same,"Biodistribution of radioactivity, Intestine",[1]; 60 min after injection,4.05 (0.55) % injected dose per gram
same,"Biodistribution of radioactivity, Kidney",[1]; 60 min after injection,3.39 (0.20) % injected dose per gram
same,"Biodistribution of radioactivity, Liver",[1]; 60 min after injection,24.95 (3.38) % injected dose per gram
same,"Biodistribution of radioactivity, Lung",[1]; 60 min after injection,6.48 (0.49) % injected dose per gram
same,"Biodistribution of radioactivity, Pancreas",[1]; 60 min after injection,1.83 (0.07) % injected dose per gram
same,"Biodistribution of radioactivity, Spleen",[1]; 60 min after injection,7.58 (2.60) % injected dose per gram
same,"Biodistribution of radioactivity, Stomach",[1]; 60 min after injection,14.72 (4.51) % injected dose per organ
same,Ex vivo autoradiography labeling of Aβ depositions in transgenic mice,"[2]; Tg2576 mice (29 months old) vs wild-type, i.v., brains removed at 30 min postinjection",intensive labeling of Aβ depositions
same,"Selectivity for vascular versus parenchymal amyloid aggregates (ex vivo autoradiography, thioflavin-S and anti-CD31 staining)",[2],selectively bound to amyloid aggregates deposited along vessels but not within parenchyma
CN(C)c1ccc(-c2nc3ccc(C4=N[O][99Tc-]5(=[O])([NH]4)[NH2+]C(c4ccc6nc(-c7ccc(N(C)C)cc7)sc6c4)=N[O]5)cc3s2)cc1 [[^99mTc]BT2B],"Biodistribution of radioactivity, Blood",[1]; 2 min after injection,23.15 (4.78) % injected dose per gram
same,"Biodistribution of radioactivity, Brain",[1]; 2 min after injection,0.37 % injected dose per gram and 0.37 (0.11) % injected dose per gram
same,"Biodistribution of radioactivity, Heart",[1]; 2 min after injection,9.48 (4.83) % injected dose per gram
same,"Biodistribution of radioactivity, Intestine",[1]; 2 min after injection,1.32 (0.21) % injected dose per gram
same,"Biodistribution of radioactivity, Kidney",[1]; 2 min after injection,6.04 (0.96) % injected dose per gram
same,"Biodistribution of radioactivity, Liver",[1]; 2 min after injection,23.21 (5.72) % injected dose per gram
same,"Biodistribution of radioactivity, Lung",[1]; 2 min after injection,22.06 (3.09) % injected dose per gram
same,"Biodistribution of radioactivity, Pancreas",[1]; 2 min after injection,2.81 (0.35) % injected dose per gram
same,"Biodistribution of radioactivity, Spleen",[1]; 2 min after injection,10.83 (1.58) % injected dose per gram
same,"Biodistribution of radioactivity, Stomach",[1]; 2 min after injection,0.69 (0.12) % injected dose per organ
same,"Biodistribution of radioactivity, Blood",[1]; 10 min after injection,10.05 (1.78) % injected dose per gram
same,"Biodistribution of radioactivity, Brain",[1]; 10 min after injection,0.20 (0.04) % injected dose per gram
same,"Biodistribution of radioactivity, Heart",[1]; 10 min after injection,8.62 (2.34) % injected dose per gram
same,"Biodistribution of radioactivity, Intestine",[1]; 10 min after injection,1.97 (0.26) % injected dose per gram
same,"Biodistribution of radioactivity, Kidney",[1]; 10 min after injection,5.02 (0.40) % injected dose per gram
same,"Biodistribution of radioactivity, Liver",[1]; 10 min after injection,33.78 (6.07) % injected dose per gram
same,"Biodistribution of radioactivity, Lung",[1]; 10 min after injection,11.97 (1.01) % injected dose per gram
same,"Biodistribution of radioactivity, Pancreas",[1]; 10 min after injection,2.19 (0.35) % injected dose per gram
same,"Biodistribution of radioactivity, Spleen",[1]; 10 min after injection,14.49 (3.50) % injected dose per gram
same,"Biodistribution of radioactivity, Stomach",[1]; 10 min after injection,3.77 (0.56) % injected dose per organ
same,"Biodistribution of radioactivity, Blood",[1]; 30 min after injection,3.72 (0.49) % injected dose per gram
same,"Biodistribution of radioactivity, Brain",[1]; 30 min after injection,0.10 (0.02) % injected dose per gram
same,"Biodistribution of radioactivity, Heart",[1]; 30 min after injection,6.67 (1.52) % injected dose per gram
same,"Biodistribution of radioactivity, Intestine",[1]; 30 min after injection,6.44 (1.04) % injected dose per gram
same,"Biodistribution of radioactivity, Kidney",[1]; 30 min after injection,3.47 (0.57) % injected dose per gram
same,"Biodistribution of radioactivity, Liver",[1]; 30 min after injection,31.45 (3.39) % injected dose per gram
same,"Biodistribution of radioactivity, Lung",[1]; 30 min after injection,5.38 (1.16) % injected dose per gram
same,"Biodistribution of radioactivity, Pancreas",[1]; 30 min after injection,1.14 (0.25) % injected dose per gram
same,"Biodistribution of radioactivity, Spleen",[1]; 30 min after injection,10.91 (1.59) % injected dose per gram
same,"Biodistribution of radioactivity, Stomach",[1]; 30 min after injection,6.47 (1.37) % injected dose per organ
same,"Biodistribution of radioactivity, Blood",[1]; 60 min after injection,1.81 (0.44) % injected dose per gram
same,"Biodistribution of radioactivity, Brain",[1]; 60 min after injection,0.05 (0.01) % injected dose per gram
same,"Biodistribution of radioactivity, Heart",[1]; 60 min after injection,7.08 (1.34) % injected dose per gram
same,"Biodistribution of radioactivity, Intestine",[1]; 60 min after injection,13.90 (1.52) % injected dose per gram
same,"Biodistribution of radioactivity, Kidney",[1]; 60 min after injection,3.13 (0.48) % injected dose per gram
same,"Biodistribution of radioactivity, Liver",[1]; 60 min after injection,35.76 (3.34) % injected dose per gram
same,"Biodistribution of radioactivity, Lung",[1]; 60 min after injection,4.50 (0.60) % injected dose per gram
same,"Biodistribution of radioactivity, Pancreas",[1]; 60 min after injection,1.27 (0.28) % injected dose per gram
same,"Biodistribution of radioactivity, Spleen",[1]; 60 min after injection,4.80 (0.63) % injected dose per gram
same,"Biodistribution of radioactivity, Stomach",[1]; 60 min after injection,4.20 (1.21) % injected dose per organ
same,"Selectivity for vascular versus parenchymal amyloid aggregates (ex vivo autoradiography, thioflavin-S and anti-CD31 staining)",[2],specific detection of CAA
